From article PMC12102759 (Protein Science : A Publication of the Protein Society, 2025)

Tested on: G3BP1 NFT2
Format: binding, human
Conditions: library DMS-BM; bait G3BP1 NFT2; prey CAPRIN1; AQMQGPYNFIQDSM(averaged): mean of the two overlapping peptides over the shared positions

Substance: AQMQGPYNFIQDSM(averaged) G5D (AQMQDPYNFIQDSM)
- DMS position-specific score (PSSM value) per amino-acid substitution, averaged: 0.001672

Substance: AQMQGPYNFIQDSM(averaged) M14V (AQMQGPYNFIQDSV)
- DMS position-specific score (PSSM value) per amino-acid substitution, averaged: 0.02285

Substance: AQMQGPYNFIQDSM(averaged) P6L (AQMQGLYNFIQDSM)
- DMS position-specific score (PSSM value) per amino-acid substitution, averaged: 0.02822

Substance: AQMQGPYNFIQDSM(averaged) A1G (GQMQGPYNFIQDSM)
- DMS position-specific score (PSSM value) per amino-acid substitution, averaged: 0.01098

Substance: AQMQGPYNFIQDSM(averaged) N8N
- DMS position-specific score (PSSM value) per amino-acid substitution, averaged: 0.08785

Substance: AQMQGPYNFIQDSM(averaged) S13R (AQMQGPYNFIQDRM)
- DMS position-specific score (PSSM value) per amino-acid substitution, averaged: 0.001343

Substance: AQMQGPYNFIQDSM(averaged) Q4L (AQMLGPYNFIQDSM)
- DMS position-specific score (PSSM value) per amino-acid substitution, averaged: 0.003961

Substance: AQMQGPYNFIQDSM(averaged) Q2W (AWMQGPYNFIQDSM)
- DMS position-specific score (PSSM value) per amino-acid substitution, averaged: 0.05769

Substance: AQMQGPYNFIQDSM(averaged) M14M
- DMS position-specific score (PSSM value) per amino-acid substitution, averaged: 0.2883

Substance: AQMQGPYNFIQDSM(averaged) Q4A (AQMAGPYNFIQDSM)
- DMS position-specific score (PSSM value) per amino-acid substitution, averaged: 0.0506

Substance: AQMQGPYNFIQDSM(averaged) Q11L (AQMQGPYNFILDSM)
- DMS position-specific score (PSSM value) per amino-acid substitution, averaged: 0.00722

Substance: AQMQGPYNFIQDSM(averaged) Y7H (AQMQGPHNFIQDSM)
- DMS position-specific score (PSSM value) per amino-acid substitution, averaged: 0.0003057

Substance: AQMQGPYNFIQDSM(averaged) F9D (AQMQGPYNDIQDSM)
- DMS position-specific score (PSSM value) per amino-acid substitution, averaged: 0.037

Substance: AQMQGPYNFIQDSM(averaged) Y7T (AQMQGPTNFIQDSM)
- DMS position-specific score (PSSM value) per amino-acid substitution, averaged: 0

Substance: AQMQGPYNFIQDSM(averaged) Q4I (AQMIGPYNFIQDSM)
- DMS position-specific score (PSSM value) per amino-acid substitution, averaged: 0.04808

Substance: AQMQGPYNFIQDSM(averaged) G5I (AQMQIPYNFIQDSM)
- DMS position-specific score (PSSM value) per amino-acid substitution, averaged: 0.01217

Substance: AQMQGPYNFIQDSM(averaged) A1P (PQMQGPYNFIQDSM)
- DMS position-specific score (PSSM value) per amino-acid substitution, averaged: 0.07411

Substance: AQMQGPYNFIQDSM(averaged) Q4S (AQMSGPYNFIQDSM)
- DMS position-specific score (PSSM value) per amino-acid substitution, averaged: 0.003246

Substance: AQMQGPYNFIQDSM(averaged) P6Q (AQMQGQYNFIQDSM)
- DMS position-specific score (PSSM value) per amino-acid substitution, averaged: 0.00431

Substance: AQMQGPYNFIQDSM(averaged) Q11Y (AQMQGPYNFIYDSM)
- DMS position-specific score (PSSM value) per amino-acid substitution, averaged: 0.0642

Substance: AQMQGPYNFIQDSM(averaged) I10S (AQMQGPYNFSQDSM)
- DMS position-specific score (PSSM value) per amino-acid substitution, averaged: 0.0008082

Substance: AQMQGPYNFIQDSM(averaged) S13G (AQMQGPYNFIQDGM)
- DMS position-specific score (PSSM value) per amino-acid substitution, averaged: 0.0006715

Substance: AQMQGPYNFIQDSM(averaged) D12G (AQMQGPYNFIQGSM)
- DMS position-specific score (PSSM value) per amino-acid substitution, averaged: 0.006593

Substance: AQMQGPYNFIQDSM(averaged) Q2E (AEMQGPYNFIQDSM)
- DMS position-specific score (PSSM value) per amino-acid substitution, averaged: 0.09844

Substance: AQMQGPYNFIQDSM(averaged) F9I (AQMQGPYNIIQDSM)
- DMS position-specific score (PSSM value) per amino-acid substitution, averaged: 0

Substance: AQMQGPYNFIQDSM(averaged) G5G
- DMS position-specific score (PSSM value) per amino-acid substitution, averaged: 0.2298

Substance: AQMQGPYNFIQDSM(averaged) P6W (AQMQGWYNFIQDSM)
- DMS position-specific score (PSSM value) per amino-acid substitution, averaged: 0.02305

Substance: AQMQGPYNFIQDSM(averaged) D12M (AQMQGPYNFIQMSM)
- DMS position-specific score (PSSM value) per amino-acid substitution, averaged: 0.01204

Substance: AQMQGPYNFIQDSM(averaged) Y7I (AQMQGPINFIQDSM)
- DMS position-specific score (PSSM value) per amino-acid substitution, averaged: 0.113

Substance: AQMQGPYNFIQDSM(averaged) Q11D (AQMQGPYNFIDDSM)
- DMS position-specific score (PSSM value) per amino-acid substitution, averaged: 0

Substance: AQMQGPYNFIQDSM(averaged) I10H (AQMQGPYNFHQDSM)
- DMS position-specific score (PSSM value) per amino-acid substitution, averaged: 0.003149

Substance: AQMQGPYNFIQDSM(averaged) Y7F (AQMQGPFNFIQDSM)
- DMS position-specific score (PSSM value) per amino-acid substitution, averaged: 0.03551

Substance: AQMQGPYNFIQDSM(averaged) Q4N (AQMNGPYNFIQDSM)
- DMS position-specific score (PSSM value) per amino-acid substitution, averaged: 0.005313

Substance: AQMQGPYNFIQDSM(averaged) M14H (AQMQGPYNFIQDSH)
- DMS position-specific score (PSSM value) per amino-acid substitution, averaged: 0.004419

Substance: AQMQGPYNFIQDSM(averaged) M3Q (AQQQGPYNFIQDSM)
- DMS position-specific score (PSSM value) per amino-acid substitution, averaged: 0.0638

Substance: AQMQGPYNFIQDSM(averaged) N8R (AQMQGPYRFIQDSM)
- DMS position-specific score (PSSM value) per amino-acid substitution, averaged: 0.00733

Substance: AQMQGPYNFIQDSM(averaged) G5Q (AQMQQPYNFIQDSM)
- DMS position-specific score (PSSM value) per amino-acid substitution, averaged: 0.004656

Substance: AQMQGPYNFIQDSM(averaged) S13L (AQMQGPYNFIQDLM)
- DMS position-specific score (PSSM value) per amino-acid substitution, averaged: 0.0002731

Substance: AQMQGPYNFIQDSM(averaged) Y7D (AQMQGPDNFIQDSM)
- DMS position-specific score (PSSM value) per amino-acid substitution, averaged: 0

Substance: AQMQGPYNFIQDSM(averaged) M3M
- DMS position-specific score (PSSM value) per amino-acid substitution, averaged: 0.1084

Substance: AQMQGPYNFIQDSM(averaged) Q2F (AFMQGPYNFIQDSM)
- DMS position-specific score (PSSM value) per amino-acid substitution, averaged: 0.3525

Substance: AQMQGPYNFIQDSM(averaged) F9N (AQMQGPYNNIQDSM)
- DMS position-specific score (PSSM value) per amino-acid substitution, averaged: 0

Substance: AQMQGPYNFIQDSM(averaged) N8I (AQMQGPYIFIQDSM)
- DMS position-specific score (PSSM value) per amino-acid substitution, averaged: 0.06952

Substance: AQMQGPYNFIQDSM(averaged) F9P (AQMQGPYNPIQDSM)
- DMS position-specific score (PSSM value) per amino-acid substitution, averaged: 0

Substance: AQMQGPYNFIQDSM(averaged) A1M (MQMQGPYNFIQDSM)
- DMS position-specific score (PSSM value) per amino-acid substitution, averaged: 0.03265

Substance: AQMQGPYNFIQDSM(averaged) M3K (AQKQGPYNFIQDSM)
- DMS position-specific score (PSSM value) per amino-acid substitution, averaged: 0.006729

Substance: AQMQGPYNFIQDSM(averaged) S13I (AQMQGPYNFIQDIM)
- DMS position-specific score (PSSM value) per amino-acid substitution, averaged: 0.01393

Substance: AQMQGPYNFIQDSM(averaged) Q2I (AIMQGPYNFIQDSM)
- DMS position-specific score (PSSM value) per amino-acid substitution, averaged: 0.05266

Substance: AQMQGPYNFIQDSM(averaged) F9M (AQMQGPYNMIQDSM)
- DMS position-specific score (PSSM value) per amino-acid substitution, averaged: 0

Substance: AQMQGPYNFIQDSM(averaged) Y7G (AQMQGPGNFIQDSM)
- DMS position-specific score (PSSM value) per amino-acid substitution, averaged: 0.05778

Substance: AQMQGPYNFIQDSM(averaged) S13T (AQMQGPYNFIQDTM)
- DMS position-specific score (PSSM value) per amino-acid substitution, averaged: 0.05884

Substance: AQMQGPYNFIQDSM(averaged) G5P (AQMQPPYNFIQDSM)
- DMS position-specific score (PSSM value) per amino-acid substitution, averaged: 0.02397

Substance: AQMQGPYNFIQDSM(averaged) S13P (AQMQGPYNFIQDPM)
- DMS position-specific score (PSSM value) per amino-acid substitution, averaged: 0

Substance: AQMQGPYNFIQDSM(averaged) M3I (AQIQGPYNFIQDSM)
- DMS position-specific score (PSSM value) per amino-acid substitution, averaged: 0.03359

Substance: AQMQGPYNFIQDSM(averaged) I10A (AQMQGPYNFAQDSM)
- DMS position-specific score (PSSM value) per amino-acid substitution, averaged: 0.0009869

Substance: AQMQGPYNFIQDSM(averaged) D12P (AQMQGPYNFIQPSM)
- DMS position-specific score (PSSM value) per amino-acid substitution, averaged: 0.216

Substance: AQMQGPYNFIQDSM(averaged) N8S (AQMQGPYSFIQDSM)
- DMS position-specific score (PSSM value) per amino-acid substitution, averaged: 0.04423

Substance: AQMQGPYNFIQDSM(averaged) G5Y (AQMQYPYNFIQDSM)
- DMS position-specific score (PSSM value) per amino-acid substitution, averaged: 0.006993
